Data set [1] has as its system Spodoptera littoralis (Egyptian cotton leafworm). As to the kind of experiment: Example B1: Activity against Spodoptera littoralis (larvicide, feeding/residual contact activity, preventive), cotton leaf discs. It counts as in vivo. The note with it: foliar, 72 h, L1 larvae on cotton leaf discs, 3 days after treatment. An excerpt:
Activity Against Spodoptera littoralis (Egyptian Cotton Leafworm)
(Larvicide, Feeding/Residual Contact Activity, Preventive)
The samples are checked for mortality, repellent effect, feeding behaviour, and growth regulation 3 days after treatment. In this test, compounds listed in Table P above show good activity. In particular compounds P.1, P.2, P.3, P.4, P.5, P.6, P.7, P.8, P.9, P.10, P.11, P.12, P.13, P.14, P.15, P.16, P.17, P.18, P.19, P.20, P.21, P.22, P.23, P.24, P.25, P.26, P.27, P.28, P.29, P.30, P.31, P.32, P.33, P.34, P.35, P.36, P.37, P.38, P.39, P.40, P.41, P.42, P.43, P.44, P.46, P.50, P.51, P.52, P.55, P.56, P.57, P.58, P.59, P.60, P61, P.66, P.67, P.68, P.69, P.70, P.71, P.72, P.73, P.74, P.75, P.76, P.77, P.78, P.83, P.84, P.87 and P.88 show an activity of over 80% at a concentration of 400 ppm.

Data set [2] deals with Heliothis virescens (tobacco budworm). Put plainly: Example B2: Activity against Heliothis virescens (ovo-larvicide, feeding/contact activity, curative), eggs on artificial diet. It counts as in vivo. The note with it: 96 h, 4 days incubation. The protocol:
Activity Against Heliothis virescens (Tobacco Budworm) (Ovo-Larvicide, Feeding/Contact Activity, Curative) Eggs (0-24 h old) are placed in 24-well microtiter plate on artificial diet and treated with test solutions by pipetting. After an incubation period of 4 days, samples are checked for egg mortality, larval mortality, and growth regulation.

Data set [3] concerns Plutella xylostella (diamond back moth). Put plainly: Example B3: Plutella xylostella (larvicide, feeding/residual contact activity, preventive), artificial diet MTP. It counts as in vivo. The note with it: 120 h, L2 larvae on artificial diet, 5 days incubation. The protocol: Plutella xylostella (Diamond Back Moth) (Larvicide, Feeding/Residual Contact Activity, Preventive) 24-well microtiter plate (MTP) with artificial diet is treated with test solutions by pipetting. After drying, the MTP's are infested with larvae (L2) (10-15 per well). After an incubation period of 5 days, samples are checked for larval mortality, antifeedant and growth regulation.

Data set [4] has as its system Myzus persicae (green peach aphid). The note with it: foliar, 144 h, read-out: activity.
For data set [5] the test system is unchanged. Put plainly: Example B6: Activity against Myzus persicae (mixed population, systemic/feeding activity, curative), pea seedling roots in test solution. The conditions noted are these: 144 h, read-out: activity.
In data set [6] the test system is Diabrotica balteata (corn root worm). As to the kind of experiment: Example B4: Diabrotica balteata (larvicide, feeding/residual contact activity, preventive), artificial diet MTP. It counts as in vivo. The conditions noted are these: 120 h, L2 larvae on artificial diet, 5 days incubation. The protocol: Diabrotica balteata (Corn Root Worm) (Larvicide, Feeding/Residual Contact Activity, Preventive) 24-well microtiter plate (MTP) with artificial diet is treated with test solutions by pipetting. After drying, the MTP's are infested with larvae (L2) (6-10 per well). After an incubation period of 5 days, samples are checked for larval mortality, antifeedant and growth regulation.

The values that follow come from patent US8399490B2, “Insecticides” (Syngenta Crop Protection LLC, priority 2007, dated 2013).

Where two headings read alike, the source gives them in different places. Bounds are passed on as bounds.

For orientation: melting point means the temperature of the solid-liquid transition. As to `CSCC(C)(C)NC(=O)c1c(NC(=O)c2cc(C(F)(F)F)nn2-c2ncccc2Cl)c(C)cc2c1OC(F)(F)O2`, the melting point is 173 to 174 °C.

`CC(C)(CS(C)(=O)=O)NC(=O)c1c(NC(=O)c2cc(C(F)(F)F)nn2-c2ncccc2Cl)c(Cl)cc2c1OCO2` gave a melting point of 88 to 90 °C.

In turn, `C[S+]([O-])CC(C)(C)NC(=O)c1c(NC(=O)c2cc(Cl)nn2-c2ncccc2Cl)c(Cl)cc2c1OC(F)(F)O2` (stereo not shown) yielded a melting point of 240 to 242 °C.

`CC(C)(CS(C)(=N)=O)NC(=O)c1c(NC(=O)c2cc(Cl)nn2-c2ncccc2Cl)c(Cl)cc2c1OC(F)(F)O2` (stereo not shown): the melting point lay in the range of 188 to 190 °C.

Molecule `CNC(=O)c1c(NC(=O)c2cc(OC(F)F)nn2-c2ncccc2Cl)c(C)cc2c1OC(F)(F)O2` came in with a melting point of 236 to 237 °C.

Turning to `Cc1cc2c(c(C(=O)NC(C)C)c1NC(=O)c1cc(OC(F)F)nn1-c1ncccc1Cl)OC(F)(F)O2`, the melting point lay within 203 to 204 °C.

Consider `CNC(=O)c1c(NC(=O)c2cc(C(F)F)nn2-c2ncccc2Cl)c(C)cc2c1OC(C)C2` (stereo not shown), for which the melting point fell in the range of 205 to 206 °C.

`Cc1cc2c(c(C(=O)NC(C)C)c1NC(=O)c1cc(C(F)F)nn1-c1ncccc1Cl)OC(C)C2` (stereo not shown) yielded a melting point of 140 to 142 °C.

`Cc1cc2c(c(C(=O)NC(C)C)c1NC(=O)c1cc(Br)nn1-c1ncccc1Cl)OC(F)(F)O2` [P.14]: the pest or weed control at 400 ppm in data set [1], in data set [2], in data set [3], in data set [4] and in data set [5] was over 80% in each case.

Take `CNC(=O)c1c(NC(=O)c2cc(C(F)(F)F)nn2-c2ncccc2Cl)c(Cl)cc2c1OC(F)(F)O2` [P.15]: the pest or weed control at 400 ppm in data set [1], in data set [2], in data set [3], in data set [6], in data set [4] and in data set [5] was over 80% each time.

Take `CSCC(C)(C)NC(=O)c1c(NC(=O)c2cc(C(F)(F)F)nn2-c2ncccc2Cl)c(Cl)cc2c1OC(F)(F)O2` [P.16]: the pest or weed control at 400 ppm in data set [1], in data set [2], in data set [3], in data set [6], in data set [4] and in data set [5] was over 80% throughout.

Take `CNC(=O)c1c(NC(=O)c2cc(Br)nn2-c2ncccc2Cl)c(Cl)cc2c1OC(F)(F)O2` [P.18]: the pest or weed control at 400 ppm in data set [1], in data set [2], in data set [3], in data set [6], in data set [4] and in data set [5] was over 80% in each case.

In the case of `CC(C)NC(=O)c1c(NC(=O)c2cc(Br)nn2-c2ncccc2Cl)c(Cl)cc2c1OC(F)(F)O2` [P.19], the pest or weed control at 400 ppm in data set [1], in data set [2], in data set [3], in data set [6], in data set [4] and in data set [5] was over 80% throughout.

For `CSCC(C)(C)NC(=O)c1c(NC(=O)c2cc(Br)nn2-c2ncccc2Cl)c(Cl)cc2c1OC(F)(F)O2` [P.20], the pest or weed control at 400 ppm in data set [1], in data set [2], in data set [3], in data set [6], in data set [4] and in data set [5] was over 80% each time.

As for `CNC(=O)c1c(NC(=O)c2cc(Cl)nn2-c2ncccc2Cl)c(Cl)cc2c1OC(F)(F)O2` [P.22], the pest or weed control at 400 ppm in data set [1], in data set [2], in data set [3], in data set [6], in data set [4] and in data set [5] was over 80% throughout.

For `CC(C)NC(=O)c1c(NC(=O)c2cc(Cl)nn2-c2ncccc2Cl)c(Cl)cc2c1OC(F)(F)O2` [P.23], the pest or weed control at 400 ppm in data set [1], in data set [2], in data set [3], in data set [6], in data set [4] and in data set [5] was over 80% in each case.

`CSCC(C)(C)NC(=O)c1c(NC(=O)c2cc(Cl)nn2-c2ncccc2Cl)c(Cl)cc2c1OC(F)(F)O2` [P.24]: the pest or weed control at 400 ppm in data set [1], in data set [2], in data set [3], in data set [6], in data set [4] and in data set [5] was over 80% throughout.

As for `CNC(=O)c1c(NC(=O)c2cc(Br)nn2-c2ncccc2Cl)c(C)cc2c1OC(F)(F)O2` [P.26], the pest or weed control at 400 ppm in data set [1], in data set [2], in data set [3], in data set [6], in data set [4] and in data set [5] was over 80% in each case.

Take `CSCC(C)(C)NC(=O)c1c(NC(=O)c2cc(Br)nn2-c2ncccc2Cl)c(C)cc2c1OC(F)(F)O2` [P.27]: the pest or weed control at 400 ppm in data set [1], in data set [2], in data set [3], in data set [6], in data set [4] and in data set [5] was over 80% in each case.

On to `CNC(=O)c1c(NC(=O)c2cc(Cl)nn2-c2ncccc2Cl)c(C)cc2c1OC(F)(F)O2` [P.29], for which the pest or weed control at 400 ppm in data set [1], in data set [2], in data set [3], in data set [6] and in data set [5] was over 80% in each case.

Take `Cc1cc2c(c(C(=O)NC(C)C)c1NC(=O)c1cc(Cl)nn1-c1ncccc1Cl)OC(F)(F)O2` [P.30]: the pest or weed control at 400 ppm in data set [1], in data set [2], in data set [3], in data set [6], in data set [4] and in data set [5] was over 80% each time.

Turning to `CSCC(C)(C)NC(=O)c1c(NC(=O)c2cc(Cl)nn2-c2ncccc2Cl)c(C)cc2c1OC(F)(F)O2` [P.31], the pest or weed control at 400 ppm in data set [1], in data set [2], in data set [3], in data set [6], in data set [4] and in data set [5] was over 80% in each case.

`COc1cc(C(=O)Nc2ccc3c(c2C(=O)NC(C)C)OCO3)n(-c2ncccc2Cl)n1` [P.64] registered a melting point of 216 to 217 °C.

For the molecule `CCNC(=O)c1c(NC(=O)c2cc(Br)nn2-c2ncccc2Cl)ccc2c1OCO2` [P.65], the melting point was in the range of 178 to 179 °C.

As for `Cc1cc2c(c(C(=O)NC(C)C)c1NC(=O)c1cc(C(F)F)nn1-c1ncccc1Cl)OCO2` [P.74], the pest or weed control at 400 ppm in data set [1], in data set [2], in data set [3], in data set [6] and in data set [5] was over 80% in each case.

With `COc1cc(C(=O)Nc2c(C)cc3c(c2C(=O)NC(C)C)OCO3)n(-c2ncccc2Cl)n1` [P.77], the pest or weed control at 400 ppm in data set [1], in data set [2], in data set [3] and in data set [5] was over 80% each time.

As for `CNC(=O)c1c(NC(=O)c2cc(C(F)F)nn2-c2ncccc2Cl)ccc2c1OC(C)C2` (stereo not shown) [P.85], the melting point is 211 to 213 °C.

Turning to `CC(C)NC(=O)c1c(NC(=O)c2cc(C(F)F)nn2-c2ncccc2Cl)ccc2c1OC(C)C2` (stereo not shown) [P.86], the melting point was 169 to 170 °C.
